Measurements as given in patent US20210386705A1, “APPLICATION OF CHIGLITAZAR AND RELATED COMPOUNDS THEREOF” (SHENZHEN CHIPSCREEN BIOSCIENCES CO., LTD., priority 2018, published 2021).

Columns and labels:
Assay type in all cases: cell-based
[1] = test system: primary human dermal fibroblasts; experiment: PDGF-BB stimulated proliferation of dermal fibroblasts (MTT assay); settings: MTT 72 hours, FIG. 3
Protocol: Primary human hepatic stellate cells or primary human dermal fibroblasts (HDF), both purchased from Sciencell, were seeded into 96-well plates with complete growth media (Stellate Cell Medium or Fibroblast Cell Medium) for 24 hours, followed by culturing overnight in the culture media free of serum and growth factors, and then the culture media were replaced by fresh medium containing platelet-derived growth factor (PDGF-BB) and the compounds to be tested at various concentrations, and the cells was cultured for another 72 hours. Measurement was performed using a conventional MTT assay kit (Promega). […] The inhibition of cell proliferation by the compounds was determined by comparing the absorbance value of the control group (FIGS. 2, 3).

[2] = target: T1, PPARγ (Homo sapiens, UniProt P37231); experiment: PPAR reporter gene model in L-02 cells, PPARγ; settings: luciferase reporter, 24 hours drug, read-out: Half-maximal activation concentration of reporter gene AC50, PPARγ
T1 construct: expressed in transfected cells; host or cells: human hepatocyte cell line L-02
T1 sequence (P37231 1-505): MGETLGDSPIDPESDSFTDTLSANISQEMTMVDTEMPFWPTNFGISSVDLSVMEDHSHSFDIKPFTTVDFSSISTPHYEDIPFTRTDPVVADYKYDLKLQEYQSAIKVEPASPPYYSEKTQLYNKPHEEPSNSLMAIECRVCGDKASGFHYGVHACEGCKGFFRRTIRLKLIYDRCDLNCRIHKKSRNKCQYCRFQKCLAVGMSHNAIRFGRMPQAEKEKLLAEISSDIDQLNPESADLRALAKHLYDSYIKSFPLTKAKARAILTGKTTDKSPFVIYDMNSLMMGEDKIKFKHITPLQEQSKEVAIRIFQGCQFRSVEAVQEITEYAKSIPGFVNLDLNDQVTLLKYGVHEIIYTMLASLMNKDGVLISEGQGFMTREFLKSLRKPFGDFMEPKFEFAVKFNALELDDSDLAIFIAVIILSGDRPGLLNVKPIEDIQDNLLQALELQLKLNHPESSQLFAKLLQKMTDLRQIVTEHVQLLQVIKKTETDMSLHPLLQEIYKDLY
T1 sequence (P19793 1-462 partner): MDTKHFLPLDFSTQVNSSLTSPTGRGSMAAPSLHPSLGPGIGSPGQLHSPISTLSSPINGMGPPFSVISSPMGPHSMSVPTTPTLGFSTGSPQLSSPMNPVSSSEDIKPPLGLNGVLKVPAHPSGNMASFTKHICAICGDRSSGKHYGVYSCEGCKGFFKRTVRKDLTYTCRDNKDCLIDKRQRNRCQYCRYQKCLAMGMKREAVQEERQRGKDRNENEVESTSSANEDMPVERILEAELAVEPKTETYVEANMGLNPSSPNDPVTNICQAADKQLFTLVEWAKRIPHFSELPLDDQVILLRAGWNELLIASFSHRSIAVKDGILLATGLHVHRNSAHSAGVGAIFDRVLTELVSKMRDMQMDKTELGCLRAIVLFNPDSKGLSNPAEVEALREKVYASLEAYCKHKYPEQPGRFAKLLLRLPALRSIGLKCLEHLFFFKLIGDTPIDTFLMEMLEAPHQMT
Protocol: (§1) The PPAR reporter gene model comprises three subtypes of expression plasmids, RXR expression plasmid, plasmid with luciferase reporter gene, and GFP expression plasmid as an external reference. The human hepatocyte cell line L-02 cells were seeded into 96-well plates at the density of 15,000 cells/well with about 50% plating rate, followed by culturing for 24 hours at 37° C. […] The fluorescence intensity (at wavelength 485-527 nm) of green fluorescent protein (GFP) in each well was firstly detected as an internal standard by a fluorescence detector, and then 30 μL of luciferase substrates (Promega, E151A) were added to each well. After slightly shaking to mix well, the […] were detected. The relative reporter gene activation intensity was obtained by the ratio of the fluorescence detection signal of the drugs to be tested to that of the solvent control, with both the signals normalized to the internal standard GFP signal. The half-maximal activation (AC50) of the drugs to be tested was calculated with the activity at various concentrations (shown in Table 1).

[3] = target: T2, PPARδ (Homo sapiens, UniProt Q03181); experiment: PPAR reporter gene model in L-02 cells, PPARδ; settings: luciferase reporter, 24 hours drug, read-out: Half-maximal activation concentration of reporter gene AC50, PPARδ
T2 construct: expressed in transfected cells; host or cells: human hepatocyte cell line L-02
T2 sequence (Q03181 1-441): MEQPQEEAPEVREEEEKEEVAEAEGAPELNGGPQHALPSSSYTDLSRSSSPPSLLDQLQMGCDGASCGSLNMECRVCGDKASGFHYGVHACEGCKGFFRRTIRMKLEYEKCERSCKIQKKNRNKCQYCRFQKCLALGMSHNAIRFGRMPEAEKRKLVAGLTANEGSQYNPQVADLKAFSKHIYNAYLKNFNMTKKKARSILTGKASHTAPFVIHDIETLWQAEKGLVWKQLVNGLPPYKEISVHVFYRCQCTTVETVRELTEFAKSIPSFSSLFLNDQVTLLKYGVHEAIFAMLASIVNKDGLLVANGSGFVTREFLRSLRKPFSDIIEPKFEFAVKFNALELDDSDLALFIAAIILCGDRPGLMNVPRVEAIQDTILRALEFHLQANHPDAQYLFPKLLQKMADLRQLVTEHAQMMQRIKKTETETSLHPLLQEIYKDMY
T2 sequence (P19793 1-462 partner): T1 sequence (P19793 1-462 partner)
Protocol: as §1

Compound: O=C(c1ccc(F)cc1)c1ccccc1N[C@@H](Cc1ccc(OCCn2c3ccccc3c3ccccc32)cc1)C(=O)[O-].[Na+] [sodium chiglitazar]
- Inhibition of in vitro proliferation of skin-derived fibroblasts [1]: had inhibitory activity
- AC50 [2]: 91 nM
- AC50 [3]: 708 nM
